Structures can show the parent of a compound that is named as a salt.
SMILES | melting point [°C]
CN1CCN(CCCNCc2cccc(-c3cc(-c4cccc(CNCCCN5CCN(C)CC5)c4)c4ccccc4n3)c2)CC1 (as salt: (cooh)2) [Compound 1r, 2,4-Bis{3-[(3–(4-methylpiperazin-1-yl)propyl)aminomethyl]phenyl}quinoline] | 237 to 239
COc1ccc2cc(-c3ccc(CNCCCCN4CCN(C)CC4)cc3)nc(-c3ccc(CNCCCCN4CCN(C)CC4)cc3)c2c1 (as salt: (cooh)2) [Compound 2g, 7-Methoxy-1,3-bis{4-[(4–(4-methylpiperazin-1-yl)butyl)aminomethyl]phenyl}isoquinoline] | 172 to 174
CN(C)CCCCNCc1ccc(-c2cc3ccccc3c(-c3ccc(CNCCCCN(C)C)cc3)n2)cc1 (as salt: (cooh)2) [Compound 2a, 1,3-Bis{4-[(4-dimethylaminobutyl)aminomethyl]phenyl}isoquinoline] | 184 to 186
COc1ccc2nc(-c3ccc(CNCCCN(C)C)cc3)cc(-c3ccc(CNCCCN(C)C)cc3)c2c1 (as salt: (cooh)2) [Compound 1j, 6-Methoxy-2,4-bis{4-[(3-dimethylaminopropyl)aminomethyl]phenyl}quinoline] | 224 to 226
c1ccc2c(-c3ccc(CNCCCN4CCOCC4)cc3)cc(-c3ccc(CNCCCN4CCOCC4)cc3)nc2c1 (as salt: (cooh)2) [Compound 1g, 2,4-Bis{4-[(3-morpholinopropyl)aminomethyl]phenyl}quinoline] | 202 to 204
c1ccc2c(-c3ccc(CNCCN4CCOCC4)cc3)nc(-c3ccc(CNCCN4CCOCC4)cc3)nc2c1 (as salt: (cooh)2) [Compound 3g, 2,4-Bis{4-[(2-morpholinoethyl)aminomethyl]phenyl}quinazoline] | 195 to 197
COc1ccc2c(-c3ccc(CNCCCCN(C)C)cc3)nc(-c3ccc(CNCCCCN(C)C)cc3)cc2c1 (as salt: (cooh)2) [Compound 2i, 6-Methoxy-1,3-bis{4-[(4-dimethylaminobutyl)aminomethyl]phenyl}isoquinoline] | 135 to 137
c1cc(CNCCCN2CCOCC2)cc(-c2cc(-c3cccc(CNCCCN4CCOCC4)c3)c3ccccc3n2)c1 (as salt: (cooh)2) [Compound 1s, 2,4-Bis{3-[(3-morpholinopropyl)aminomethyl]phenyl}quinoline] | 221 to 223
CN1CCN(CCCCNCc2ccc(-c3cc4ccccc4c(-c4ccc(CNCCCCN5CCN(C)CC5)cc4)n3)cc2)CC1 (as salt: (cooh)2) [Compound 2c, 1,3-Bis{4-[(4–(4-methylpiperazin-1-yl)butyl)aminomethyl]phenyl}isoquinoline] | 181 to 183

Other lines, results leading:

melting point [°C] | SMILES
229 to 231 | COc1ccc2nc(-c3ccc(CNCCN4CCN(C)CC4)cc3)nc(-c3ccc(CNCCN4CCN(C)CC4)cc3)c2c1 (as salt: (cooh)2) [Compound 3l, 6-Methoxy-2,4-bis{4-[(2–(4-methylpiperazin-1-yl)ethyl)aminomethyl]phenyl}quinazoline]
234 to 236 | COc1ccc2c(-c3ccc(CNCCN(C)C)cc3)nc(-c3ccc(CNCCN(C)C)cc3)nc2c1 (as salt: (cooh)2) [Compound 3o, 7-Methoxy-2,4-bis{4-[(2-dimethylaminoethyl)aminomethyl]phenyl}quinazoline]
252 to 254 | CN1CCN(CCCNCc2cccc(-c3nc(-c4cccc(CNCCCN5CCN(C)CC5)c4)c4ccccc4n3)c2)CC1 (as salt: (cooh)2) [Compound 3t, 2,4-Bis{3-[(3–(4-methylpiperazin-1-yl)propyl)aminomethyl]phenyl}quinazoline]
238 to 240 | COc1ccc2c(-c3ccc(CNCCN4CCN(C)CC4)cc3)nc(-c3ccc(CNCCN4CCN(C)CC4)cc3)nc2c1 (as salt: (cooh)2) [Compound 3r, 7-Methoxy-2,4-bis{4-[(2–(4-methylpiperazin-1-yl)ethyl)aminomethyl]phenyl}quinazoline]

Source: paper PMC6968685 (Journal of Enzyme Inhibition and Medicinal Chemistry, 2020)
